Laboratory results from patent US20050165053A1, “Substituted4-aryl-3-(3-aryl-1-oxo-2-propenyl)-2(1h)-quinolinones and analogs as activators of caspases and inducers of apoptosis and the use thereof” (Cytovia, Inc., priority 2001, published 2005).

Assays:
[1] = target: T1, protein tyrosine phosphatase 1B (PTP1B) (Homo sapiens, UniProt P18031); conditions: read-out: Ki5; cited from earlier work
T1 sequence (P18031 1-435): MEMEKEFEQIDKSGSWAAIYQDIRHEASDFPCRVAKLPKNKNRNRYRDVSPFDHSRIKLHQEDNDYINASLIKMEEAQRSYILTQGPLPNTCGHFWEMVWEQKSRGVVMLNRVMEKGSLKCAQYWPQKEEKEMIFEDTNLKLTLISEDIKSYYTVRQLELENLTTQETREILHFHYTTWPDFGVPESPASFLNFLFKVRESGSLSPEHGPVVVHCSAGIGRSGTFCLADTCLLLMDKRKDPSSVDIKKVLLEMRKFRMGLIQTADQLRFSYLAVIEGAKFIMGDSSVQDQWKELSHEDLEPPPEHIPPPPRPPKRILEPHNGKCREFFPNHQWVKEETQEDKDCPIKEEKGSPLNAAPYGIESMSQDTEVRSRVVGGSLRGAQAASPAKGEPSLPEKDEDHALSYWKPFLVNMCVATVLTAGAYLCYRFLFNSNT

T-47D [2] = assay: Inhibition of cell proliferation (GI50), CellTiter 96 AQUEOUS One, T-47D; type: cell-based; conditions: Homo sapiens, T47D, 48 h, read-out: GI50 (dose for 50% inhibition of cell proliferation)
Method: (§1) T-47D and ZR-75-1 cells were grown and harvested as in Example 22. An aliquot of 90 μl of cells (2.2×10^4 cells/ml) was added to a well of a 96-well microtiter plate containing 10 μl of a 10% DMSO in RPMI-1640 media solution containing 1 nM to 100 μM of 6-bromo-3-[3-(4-nitrophenyl)-1-oxo-2-propenyl]-4-phenyl-2(1H)-quinolinone (0.1 nM to 10 μM final). An aliquot of 90 μl of cells was added to a well of a 96-well microtiter plate containing 10 μl of a 10% DMSO in RPMI-1640 media solution without compound as the control sample for maximal cell proliferation (AMax). The samples were mixed by agitation and then incubated at 37° C. for 48 h in a 5% CO2-95% humidity incubator. After incubation, the samples were removed from the incubator and 20 μL of CellTiter 96 AQUEOUS One Solution Cell Proliferation™ reagent (Promega) was added. The samples were mixed by agitation and incubated at 37° C. for 2-4 h in a 5% CO2-95% humidity incubator. Using an absorbance plate reader (Model 1420 Wallac Instruments), an initial reading (T=0) was made approximately 1-2 min after addition of the solution, employing absorbance at 490 nm. This determines the possible background absorbance of the test compounds. No absorbance for 6-bromo-3-[3-(4-nitrophenyl)-1-oxo-2-propenyl]-4-phenyl-2(1H)-quinolinone was found at 490 nm. After the 2-4 h incubation, the samples were read for absorbance as above (ATest). […]

ZR-75-1 [3] = assay: Caspase cascade activation assay in ZR-75-1 cells (N-(Ac-DEVD)-N'-ethoxycarbonyl-R110 fluorogenic substrate); type: cell-based, Human; conditions: ZR-75-1, 24 h incubation; for EC50: Homo sapiens, read-out: Caspase potency EC50; for Caspase activity Ratio (net RFU of test compound to control): 0.016 to 10 μM final
Method: (§2) Human breast cancer cell lines T-47D and ZR-75-1 were grown according to media component mixtures designated by American Type Culture Collection+10% FCS (Life Technologies Division of Invitrogen Corporation), in a 5% CO2-95% humidity incubator at 37° C. T-47D and ZR-75-1 cells were maintained at a cell density between 50 and 80% confluency at a cell density of 0.1 to 0.6×10^6 cells/ml. Cells were harvested at 600×g and resuspended at 0.65×10^6 cells/ml into appropriate media+10% FCS. An aliquot of 45 μl of cells was added to a well of a 96-well microtiter plate containing 2.5 μl of a 10% DMSO in RPMI-1640 media solution containing 0.16 to 100 μM of 6-bromo-3-[3-(4-nitrophenyl)-1-oxo-2-propenyl]-4-phenyl-2(1H)-quinolinone or other test compound (0.016 to 10 μM final). An aliquot of 22.5 μl of cells was added to a well of a 384-well microtiter plate containing 2.5 μl of a 10% DMSO in RPMI-1640 media solution without test compound as the control sample. The samples were mixed by agitation and then incubated at 37° C. for 24 h in a 5% CO2-95% humidity incubator. After incubation, the samples were removed from the incubator and 25 μl of a solution containing 14 μM of N-(Ac-DEVD)-N′-ethoxycarbonyl-R110 (SEQ ID No.: 1) fluorogenic substrate (Cytovia, Inc.; WO99/18856), 20% sucrose (Sigma), 20 mM DTT (Sigma), 200 mM NaCl (Sigma), 40 mM Na PIPES buffer pH 7.2 (Sigma), and 500 μg/ml lysolecithin (Calbiochem) was added. The samples were mixed by agitation and incubated at room temperature. Using a fluorescent plate reader (Model SpectraMax Gemini, Molecular Devices), an initial reading (T=0) was made approximately 1-2 min after addition of the substrate solution, employing excitation at 485 nm and emission at 530 nm, to determine the background fluorescence of the control sample. After the 3 h incubation, the samples were read for fluorescence as above (T=3 h).
(§3) The Relative Fluorescence Unit values (RFU) were used to calculate the sample readings as follows: RFU(T=3h)−Control RFU(T=0)=Net RFU(T=3h)
(§4) The activity of caspase cascade activation was determined by the ratio of the net RFU value for 6-bromo-3-[3-(4-nitrophenyl)-1-oxo-2-propenyl]-4-phenyl-2(1H)-quinolinone or other test compound to that of control samples. The EC50 (nM) was determined by a sigmoidal dose-response calculation (Prism 2.0, GraphPad Software Inc.).

T-47D [4] = assay: Caspase cascade activation assay in T-47D cells (N-(Ac-DEVD)-N'-ethoxycarbonyl-R110 fluorogenic substrate); type: cell-based, Human; conditions: 24 h incubation; for Caspase activity Ratio (net RFU of test compound to control): 0.016 to 10 μM final; for EC50: Homo sapiens, T47D, read-out: Caspase potency EC50
Method: as §2, §3, §4

ZR-75-1 [5] = assay: Inhibition of cell proliferation (GI50), CellTiter 96 AQUEOUS One, ZR-75-1; type: cell-based; conditions: Homo sapiens, ZR-75-1, 48 h; read-out: GI50 (dose for 50% inhibition of cell proliferation)
Method: as §1

T-47D cells = assay: Apoptosis in T-47D cells by propidium iodide flow cytometry (sub-diploid DNA content); type: cell-based, Human; conditions: 5 μM, 48 h, control 3%
Method: T-47D, a breast cancer cell line, was maintained and harvested as described in Example 22. 5×10^5 cells were treated with 5 μM of 6-bromo-3-[3-(4-nitrophenyl)-1-oxo-2-propenyl]-4-phenyl-2(1H)-quinolinone for 48 h at 37° C. As a control, cells were also incubated with equivalent amount of solvent (DMSO). Cells were harvested at 1,200 rpm and then transferred to 12×75 mm polystyrene tubes. Cells were then resuspended in 500 μl of 1% Na Citrate, 0.1% Triton X-100, 50 μg/ml of propidium iodide and incubated at room temperature for 30 min followed by flow cytometer analysis. All flow cytometry analyses were performed on FACScalibur (Becton Dickinson) using Cell Quest analysis software. The x-axis plotted the amount of fluorescence and the y-axis is plotted the number of cells with the indicated fluorescence. The T-47D control cell population profile is seen in FIG. 1A. The sub-diploid DNA content of cells (FIG. 1B) is increased from 3% to 49% with compound treatment. The sub-diploid amount of DNA is indicative of apoptotic cells which have undergone DNA degradation or fragmentation.

Row | GI50 (T-47D [2]) | EC50 (ZR-75-1 [3]) | EC50 (T-47D [4]) | SMILES | Ki [1] | Caspase activity Ratio (net RFU of test compound to control) (ZR-75-1 [3]) | Caspase activity Ratio (net RFU of test compound to control) (T-47D [4]) | GI50 (ZR-75-1 [5]) | sub-diploid DNA content of cells (M1) (T-47D cells)
1 | – | – | – | O=C(/C=C/c1cccc([N+](=O)[O-])c1)c1c(-c2ccccc2)c2ccc([N+](=O)[O-])cc2[nH]c1=O [7-Nitro-3-[3-(3-nitrophenyl)-acryloyl]-4-phenyl-1H-quinolin-2-one] | 54000 nM | – | – | – | –
2 | 500 nM | 3300 nM | 1900 nM | O=C(C=Cc1ccc([N+](=O)[O-])cc1)c1c(-c2ccccc2)c2cc(Br)ccc2[nH]c1=O [Compound A, 6-bromo-3-[3-(4-nitrophenyl)-1-oxo-2-propenyl]-4-phenyl-2(1H)-quinolinone] | – | 12.4 | 8.7 | 500 nM | 49%
3 | – | 1800 nM | 849 nM | O=C(C=Cc1cccc([N+](=O)[O-])c1)c1c(-c2ccccc2)c2cc(Br)ccc2[nH]c1=O [Compound B, 6-bromo-3-[3-(3-nitrophenyl)-1-oxo-2-propenyl]-4-phenyl-2(1H)-quinolinone] | – | 12.1 | 10.6 | – | –
